Laboratory results published in patent US12479895B2, “C-terminal CDNF and MANF fragments, pharmaceutical compositions comprising same and uses thereof” (MyNeuroCure Oy, priority 2018, dated 2025).

Assays:
ER stressed SCG neurons = assay: Survival of tunicamycin-treated (ER stressed) SCG sympathetic neurons after microinjection; format: cell-based, mice; conditions: for survived neurons as % compared to neurons grown in the presence of NGF: Table 1A (FIG. 14), microinjected into cytoplasm, tunicamycin 2 μM, CDNF (400); for Fold change of survived neurons compared to neurons injected with PBS: data of Table 1 divided by values of PBS
Procedure: Non-neuronal cells were removed by extensive preplating. Almost pure neurons were cultured in polyornithine/laminin (Sigma)-coated 35-mm plastic dishes in the small-size standard microislands in the Neurobasal medium and B27 supplement (Invitrogen/Gibco) in the presence of 30 ng/ml mouse nerve growth factor (NGF) (Promega) for 5-6 days. NGF was deprived by extensive washing and addition of the function-blocking anti-NGF antibodies (Roche). The neurons were pressure-microinjected with special neuronal microinjection equipment (Hellman et al., 2011; Hamner et al., 2001; Lindholm et al., 2002; Sun et al., 2001; Yu et al., 2003)(Sun et al., 2001; Sun et al., 2003). For the survival assay, all neurons on the microislands were counted in the beginning (initial number) and the end (three days) of the experiment and expressed as % of initial.
Microinjection of the sympathetic neurons was performed as described earlier (Yu, L. Y., Jokitalo, E., Sun, Y. F., Mehlen, P., Lindholm, D., Saarma, M., and Arumae, U. (2003) J Cell Biol. 163, 987-997). Plasmids for CDNF have been described earlier. Briefly, newborn mouse SCG neurons were grown with NGF (Promega) for 5-6 days then the nuclei were microinjected with the expression plasmids for full-length (FL)-CDNF and C-CDNF together with a reporter plasmid for enhanced green fluorescent protein (EGFP), using vector concentration of 10 ng/ul in each experiment. […] For protein microinjection, recombinant full length (FL)-CDNF, C-CDNF proteins in PBS at 200 ng/ul were microinjected directly into the cytoplasm together with fluorescent reporter Dextran Texas Red (MW 70000 Da) (Invitrogen, Molecular Probes) that facilitates identification of the successfully injected neurons. Next day tunicamycin (2 μM) was added, and after 3 days the living fluorescent neurons were counted. Living fluorescent (EGFP-expressing or Dextran Texas Red-containing) neurons were “blindly” counted three days later and expressed as percent of initial living fluorescent neurons counted 2-3 hours after microinjection. The experiments with plasmids were repeated on independent cultures 5 times for plasmid experiment, whereas four independent protein injection experiments were performed. On average, 50-80 neurons were successfully injected per experimental group. The results were expressed as the mean±the SEM. Data of each experimental group was compared with control plasmid PCR3.1 (vector) or PBS (in the protein injection experiments) by one-way ANOVA and post hoc Dunnett's t test. The null hypothesis was rejected at p<0.05.

dopamine neurons = assay: Survival of TH-positive dopamine neurons in dissociated midbrain floor cultures; format: cell-based, mouse; conditions: for survived neurons as % compared to neurons grown in the presence of GDNF: Table 3A (FIG. 15), 5 days; for Fold change of survived neurons compared to neurons grown without growth factors: data of Table 3 divided by values of no factor
Procedure: To study the dopamine neurons (Yu et al., 2008; Yu and Arumae, 2008), the midbrain floors were dissected from the ventral mesencephali of 13.5-d-old NMRI strain mouse embryos. Tissues were incubated with 0.5% trypsin (ICN Biomedical), then mechanically dissociated using a large fire-polished Pasteur pipette. The neurons were grown on the poly-L-ornithine-coated (Sigma) 96-well culture plates in DMEM/F12 medium (Invitrogen) containing N2 supplement (Invitrogen) in the presence or absence of GDNF (100 ng/ml) or with CDNF, MANF, C-CDNF and C-MANF polypeptides at different concentrations for five days. Same amount of the neurons were plated to each well at the beginning of the experiments. The cultures without added neurotrophic factors served as the negative control. As the midbrain cultures contain several neuronal types, the cultures were fixed and immunostained with the antibodies to tyrosine hydroxylase (TH) (Millipore), a specific marker for the dopaminergic neurons. Images of each well were scanned by CellInsight™ and immunopositive neurons were counted by CellProfiler and CellProfiler analyst software. Data are expressed as a percentage of GDNF-maintained TH-positive neurons. All experiments were repeated at least three times on the independent cultures. The results were expressed as the mean the SEM and were tested for the significance by either one-way ANOVA and Tukey's post hoc test or by two-tailed Student's t-test. The null hypothesis was rejected at P≤0.05.

TLDLASVDLRKMRVAELKQILHSWGEECRACAEKTDYVNLIQELAPKYAATHPKTEL (listed as Homo sapiens) [pep2]
survived neurons as % compared to neurons grown in the presence of NGF (ER stressed SCG neurons; AVG of exp1-2): 77.52 % NGF | survived neurons as % compared to neurons grown in the presence of NGF (ER stressed SCG neurons; exp1, counted after 3 days): 79.71 % NGF | survived neurons as % compared to neurons grown in the presence of NGF (ER stressed SCG neurons; exp2, counted after 3 days): 75.32 % NGF | Fold change of survived neurons compared to neurons injected with PBS (ER stressed SCG neurons; Table 2, AVG): 2.11 Fold to PBS | Fold change of survived neurons compared to neurons injected with PBS (ER stressed SCG neurons; Table 2, exp1): 2.32 Fold to PBS | Fold change of survived neurons compared to neurons injected with PBS (ER stressed SCG neurons; Table 2, exp2): 1.90 Fold to PBS | survived neurons as % compared to neurons grown in the presence of GDNF (dopamine neurons; AVG, 1 ng/ml): 67.69 % GDNF | survived neurons as % compared to neurons grown in the presence of GDNF (dopamine neurons; AVG, 10 ng/ml): 69.82 % GDNF | survived neurons as % compared to neurons grown in the presence of GDNF (dopamine neurons; AVG, 100 ng/ml): 68.98 % GDNF | survived neurons as % compared to neurons grown in the presence of GDNF (dopamine neurons; AVG, 1000 ng/ml): 66.30 % GDNF | survived neurons as % compared to neurons grown in the presence of GDNF (dopamine neurons; exp1, 1 ng/ml): 81.18 % GDNF | survived neurons as % compared to neurons grown in the presence of GDNF (dopamine neurons; exp1, 10 ng/ml): 74.74 % GDNF | survived neurons as % compared to neurons grown in the presence of GDNF (dopamine neurons; exp1, 100 ng/ml): 81.00 % GDNF | survived neurons as % compared to neurons grown in the presence of GDNF (dopamine neurons; exp1, 1000 ng/ml): 83.01 % GDNF | survived neurons as % compared to neurons grown in the presence of GDNF (dopamine neurons; exp2, 1 ng/ml): 52.61 % GDNF | survived neurons as % compared to neurons grown in the presence of GDNF (dopamine neurons; exp2, 10 ng/ml): 58.93 % GDNF | survived neurons as % compared to neurons grown in the presence of GDNF (dopamine neurons; exp2, 100 ng/ml): 47.98 % GDNF | survived neurons as % compared to neurons grown in the presence of GDNF (dopamine neurons; exp2, 1000 ng/ml): 52.95 % GDNF | survived neurons as % compared to neurons grown in the presence of GDNF (dopamine neurons; exp3, 1 ng/ml): 69.28 % GDNF | survived neurons as % compared to neurons grown in the presence of GDNF (dopamine neurons; exp3, 10 ng/ml): 75.80 % GDNF | survived neurons as % compared to neurons grown in the presence of GDNF (dopamine neurons; exp3, 100 ng/ml): 77.95 % GDNF | survived neurons as % compared to neurons grown in the presence of GDNF (dopamine neurons; exp3, 1000 ng/ml): 62.94 % GDNF | Fold change of survived neurons compared to neurons grown without growth factors (dopamine neurons; Table 4, AVG, 1 ng/ml): 1.11 fold | Fold change of survived neurons compared to neurons grown without growth factors (dopamine neurons; Table 4, AVG, 10 ng/ml): 1.14 fold | Fold change of survived neurons compared to neurons grown without growth factors (dopamine neurons; Table 4, AVG, 100 ng/ml): 1.13 fold | Fold change of survived neurons compared to neurons grown without growth factors (dopamine neurons; Table 4, AVG, 1000 ng/ml): 1.09 fold | Fold change of survived neurons compared to neurons grown without growth factors (dopamine neurons; Table 4, exp1, 1 ng/ml): 1.42 fold | Fold change of survived neurons compared to neurons grown without growth factors (dopamine neurons; Table 4, exp1, 10 ng/ml): 1.31 fold | Fold change of survived neurons compared to neurons grown without growth factors (dopamine neurons; Table 4, exp1, 100 ng/ml): 1.42 fold | Fold change of survived neurons compared to neurons grown without growth factors (dopamine neurons; Table 4, exp1, 1000 ng/ml): 1.45 fold | Fold change of survived neurons compared to neurons grown without growth factors (dopamine neurons; Table 4, exp2, 1 ng/ml): 0.83 fold | Fold change of survived neurons compared to neurons grown without growth factors (dopamine neurons; Table 4, exp2, 10 ng/ml): 0.93 fold | Fold change of survived neurons compared to neurons grown without growth factors (dopamine neurons; Table 4, exp2, 100 ng/ml): 0.76 fold | Fold change of survived neurons compared to neurons grown without growth factors (dopamine neurons; Table 4, exp2, 1000 ng/ml): 0.84 fold | Fold change of survived neurons compared to neurons grown without growth factors (dopamine neurons; Table 4, exp3, 1 ng/ml): 1.07 fold | Fold change of survived neurons compared to neurons grown without growth factors (dopamine neurons; Table 4, exp3, 10 ng/ml): 1.17 fold | Fold change of survived neurons compared to neurons grown without growth factors (dopamine neurons; Table 4, exp3, 100 ng/ml): 1.20 fold | Fold change of survived neurons compared to neurons grown without growth factors (dopamine neurons; Table 4, exp3, 1000 ng/ml): 0.97 fold
